Assay results taken from US20020137929A1, “1 - (3-heterocyclylphenyl) isothiourea, -isourea, -guanidine and -amidine herbicidal agents” (Intellectual Property Department, BASF Aktiengesellschaft, priority 1998, published 2002).

How the values were obtained:
[1] = system: ORYSAT (Rice, Tebonnet); assay: Preemergence herbicidal evaluation; type: in vivo, Oryza sativa, (L.) Tebonnet; conditions: rated 4-5 weeks after treatment, rating scale 0-9
Procedure, shortened: (§1)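 Sown cups got a single aqueous acetone spray of test compound (roughly 0.0156–0.500 kg/ha) before seedlings emerged. Evaluation, 4–5 weeks on, used a 0–9 visual scale covering plant stand, vigor, size, malformation, chlorosis and general appearance compared with controls.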

[2] = system: CYPIR (Rice Flatsedge); assay: Preemergence weed control under flooded paddy conditions; type: in vivo, Cyperus iria; conditions: rated 3-4 weeks after treatment
Procedure, shortened: (§2)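 First, seeds or propagules go into the top 0.5 cm of silt loam; next, water is held 1.5 to 3 cm over the soil; then compound (50/50 acetone/water) is pipetted into it at about 0.0313 to 0.500 kg/ha; finally plants are rated visually 0-9 after three to four weeks.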

[3] = system: ECHORC (Watergrass (Calif.)); assay: as above; type: in vivo, Echinochloa oryzoides; conditions: rated 3-4 weeks after treatment
Procedure, shortened: as §2

[4] = system: CASOB (Sicklepod); assay: Postemergence herbicidal evaluation; type: in vivo, Cassia obtusifolia; conditions: postemergence
Procedure, shortened: (§3)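 Rate range approx. 0.0156–0.500 kg/ha. Foliar application at 40 psi to ~2-week seedlings; surfactant 0.5% TWEEN 20 in 50/50 acetone/water. Evaluation 4–5 wk post-treatment by 0–9 visual injury score, means of replicate tests.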

[5] = system: GALAP (Galium); assay: Postemergence herbicidal evaluation; type: in vivo, Galium aparine; conditions: postemergence
Procedure, shortened: as §3

[6] = system: ZEAMX (Corn, Field); assay: Preemergence herbicidal evaluation; type: in vivo, Zea mays; conditions: rated 4-5 weeks after treatment, rating scale 0-9
Procedure, shortened: as §1

[7] = system: IPOHE (Morningglory, Ivyleaf); assay: Preemergence herbicidal evaluation; type: in vivo, Ipomoea hederacea; conditions: rated 4-5 weeks after treatment, rating scale 0-9
Procedure, shortened: as §1

[8] = system: CHEAL (Lambsquarters, Common); assay: Preemergence herbicidal evaluation; type: in vivo, Chenopodium album; conditions: rated 4-5 weeks after treatment, rating scale 0-9
Procedure, shortened: as §1

[9] = system: AMBEL (Ragweed, Common); assay: Preemergence herbicidal evaluation; type: in vivo, Ambrosia artemisifolia; conditions: rated 4-5 weeks after treatment, rating scale 0-9
Procedure, shortened: as §1

[10] = system: CYPSE (Flatsedge); assay: Preemergence weed control under flooded paddy conditions; type: in vivo, Cyperus serotinus; conditions: rated 3-4 weeks after treatment
Procedure, shortened: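 Flooded-pot preemergence screen with silt loam and seeds in the upper 0.5 cm. Dose about 0.0313 to 0.500 kg/ha, delivered into flood water; visual 0-9 score after 3 to 4 weeks.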

[11] = system: ZEAMX (Corn, Field); assay: Postemergence herbicidal evaluation; type: in vivo, Zea mays; conditions: postemergence
Procedure, shortened: as §3

[12] = system: TRZAWR (Wheat, Winter, cv Riband); assay: Preemergence herbicidal evaluation; type: in vivo, Triticum aestivum; conditions: rated 4-5 weeks after treatment, rating scale 0-9
Procedure, shortened: as §1

Cc1ccc(CN2C(=O)CSC2=Nc2cc(-n3c(=O)cc(C(F)(F)F)n(C)c3=O)c(F)cc2Cl)cc1C [Compound 147, 3-{4-Chloro-5-{[3-(3,4-dimethylbenzyl)-4-oxo-2-thiazolidinylidene]amino}-2-fluorophenyl}-1-methyl-6-(trifluoromethyl)-2,4(1H,3H)-pyrimidinedione]
4.5: herbicidal rating ZEAMX ([11]; rate 0.0313 kg/ha) | herbicidal rating ZEAMX ([11]; rate 0.0625 kg/ha)
4.0: herbicidal effect rating, CYPIR ([2]; 0.0313 kg/ha) | herbicidal effect rating, CYPIR ([2]; 0.0625 kg/ha) | Preemergence herbicidal rating AMBEL ([9]; rate 0.2500 kg/ha) | herbicidal rating ZEAMX ([11]; rate 0.0156 kg/ha)
5.0: herbicidal effect rating, ECHORC ([3]; 0.0313 kg/ha)
3.0: herbicidal rating GALAP ([5]; rate 0.0625 kg/ha)
0.0: Preemergence herbicidal rating ORYSAT ([1]; rate 0.0156 kg/ha) | Preemergence herbicidal rating ORYSAT ([1]; rate 0.0313 kg/ha) | Preemergence herbicidal rating ORYSAT ([1]; rate 0.0625 kg/ha) | Preemergence herbicidal rating ORYSAT ([1]; rate 0.1250 kg/ha) | Preemergence herbicidal rating ORYSAT ([1]; rate 0.2500 kg/ha) | herbicidal rating GALAP ([5]; rate 0.0156 kg/ha) | Preemergence herbicidal rating ZEAMX ([6]; rate 0.0625 kg/ha) | Preemergence herbicidal rating IPOHE ([7]; rate 0.0156 kg/ha) | Preemergence herbicidal rating IPOHE ([7]; rate 0.0313 kg/ha) | Preemergence herbicidal rating IPOHE ([7]; rate 0.0625 kg/ha) | Preemergence herbicidal rating IPOHE ([7]; rate 0.1250 kg/ha) | Preemergence herbicidal rating IPOHE ([7]; rate 0.2500 kg/ha) | Preemergence herbicidal rating CHEAL ([8]; rate 0.0156 kg/ha) | Preemergence herbicidal rating CHEAL ([8]; rate 0.0313 kg/ha) | Preemergence herbicidal rating AMBEL ([9]; rate 0.0156 kg/ha) | Preemergence herbicidal rating AMBEL ([9]; rate 0.0313 kg/ha) | Preemergence herbicidal rating AMBEL ([9]; rate 0.0625 kg/ha) | herbicidal effect rating, CYPSE ([10]; 0.2500 kg/ha) | Preemergence herbicidal rating TRZAWR ([12]; rate 0.0156 kg/ha) | Preemergence herbicidal rating TRZAWR ([12]; rate 0.0313 kg/ha) | Preemergence herbicidal rating TRZAWR ([12]; rate 0.0625 kg/ha) | Preemergence herbicidal rating TRZAWR ([12]; rate 0.1250 kg/ha) | Preemergence herbicidal rating TRZAWR ([12]; rate 0.2500 kg/ha)
1.0: herbicidal rating CASOB ([4]; rate 0.0156 kg/ha) | herbicidal rating CASOB ([4]; rate 0.0313 kg/ha) | herbicidal rating GALAP ([5]; rate 0.0313 kg/ha) | Preemergence herbicidal rating ZEAMX ([6]; rate 0.0156 kg/ha) | Preemergence herbicidal rating ZEAMX ([6]; rate 0.0313 kg/ha) | Preemergence herbicidal rating ZEAMX ([6]; rate 0.1250 kg/ha) | Preemergence herbicidal rating AMBEL ([9]; rate 0.1250 kg/ha)
2.0: herbicidal rating CASOB ([4]; rate 0.0625 kg/ha) | Preemergence herbicidal rating ZEAMX ([6]; rate 0.2500 kg/ha)
6.0: Preemergence herbicidal rating CHEAL ([8]; rate 0.0625 kg/ha)
7.0: herbicidal effect rating, CYPIR ([2]; 0.1250 kg/ha) | herbicidal effect rating, CYPIR ([2]; 0.2500 kg/ha) | herbicidal effect rating, ECHORC ([3]; 0.0625 kg/ha)
9.0: herbicidal effect rating, ECHORC ([3]; 0.1250 kg/ha) | herbicidal effect rating, ECHORC ([3]; 0.2500 kg/ha) | Preemergence herbicidal rating CHEAL ([8]; rate 0.1250 kg/ha) | Preemergence herbicidal rating CHEAL ([8]; rate 0.2500 kg/ha)

Cn1c(C(F)(F)F)cc(=O)n(-c2cc(N=C3SCC(=O)N3Cc3ccc(Br)cc3)c(Cl)cc2F)c1=O [Compound 148, 3-{5-{[3-(p-Bromobenzyl)-4-oxo-2-thiazolidinyl-idene]amino}-4-chloro-2-fluorophenyl}-1-methyl-6-(trifluoromethyl)-2,4(1H,3H)-pyrimidinedione]
5.0: herbicidal effect rating, CYPSE ([10]; 0.2500 kg/ha) | herbicidal rating ZEAMX ([11]; rate 0.0625 kg/ha)
6.0: herbicidal effect rating, CYPIR ([2]; 0.1250 kg/ha) | herbicidal effect rating, ECHORC ([3]; 0.0313 kg/ha) | Preemergence herbicidal rating CHEAL ([8]; rate 0.0313 kg/ha)
0.0: Preemergence herbicidal rating ORYSAT ([1]; rate 0.0313 kg/ha) | Preemergence herbicidal rating ORYSAT ([1]; rate 0.0625 kg/ha) | Preemergence herbicidal rating ORYSAT ([1]; rate 0.1250 kg/ha) | Preemergence herbicidal rating ORYSAT ([1]; rate 0.2500 kg/ha) | Preemergence herbicidal rating ZEAMX ([6]; rate 0.0313 kg/ha) | Preemergence herbicidal rating ZEAMX ([6]; rate 0.0625 kg/ha) | Preemergence herbicidal rating ZEAMX ([6]; rate 0.1250 kg/ha) | Preemergence herbicidal rating IPOHE ([7]; rate 0.0313 kg/ha) | Preemergence herbicidal rating IPOHE ([7]; rate 0.0625 kg/ha) | Preemergence herbicidal rating IPOHE ([7]; rate 0.1250 kg/ha) | Preemergence herbicidal rating IPOHE ([7]; rate 0.2500 kg/ha) | Preemergence herbicidal rating AMBEL ([9]; rate 0.0313 kg/ha) | Preemergence herbicidal rating AMBEL ([9]; rate 0.0625 kg/ha) | Preemergence herbicidal rating AMBEL ([9]; rate 0.1250 kg/ha) | herbicidal effect rating, CYPSE ([10]; 0.0313 kg/ha) | herbicidal effect rating, CYPSE ([10]; 0.1250 kg/ha) | Preemergence herbicidal rating TRZAWR ([12]; rate 0.0313 kg/ha) | Preemergence herbicidal rating TRZAWR ([12]; rate 0.0625 kg/ha) | Preemergence herbicidal rating TRZAWR ([12]; rate 0.1250 kg/ha) | Preemergence herbicidal rating TRZAWR ([12]; rate 0.2500 kg/ha)
2.0: herbicidal rating GALAP ([5]; rate 0.0156 kg/ha) | herbicidal rating GALAP ([5]; rate 0.0313 kg/ha) | herbicidal rating GALAP ([5]; rate 0.0625 kg/ha)
4.0: herbicidal effect rating, CYPIR ([2]; 0.0313 kg/ha) | herbicidal effect rating, CYPIR ([2]; 0.0625 kg/ha) | Preemergence herbicidal rating AMBEL ([9]; rate 0.2500 kg/ha) | herbicidal rating ZEAMX ([11]; rate 0.0156 kg/ha) | herbicidal rating ZEAMX ([11]; rate 0.0313 kg/ha)
3.0: herbicidal rating CASOB ([4]; rate 0.0156 kg/ha) | herbicidal rating CASOB ([4]; rate 0.0313 kg/ha) | herbicidal rating CASOB ([4]; rate 0.0625 kg/ha)
1.0: Preemergence herbicidal rating ZEAMX ([6]; rate 0.2500 kg/ha)
9.0: herbicidal effect rating, ECHORC ([3]; 0.1250 kg/ha) | herbicidal effect rating, ECHORC ([3]; 0.2500 kg/ha) | Preemergence herbicidal rating CHEAL ([8]; rate 0.0625 kg/ha) | Preemergence herbicidal rating CHEAL ([8]; rate 0.1250 kg/ha) | Preemergence herbicidal rating CHEAL ([8]; rate 0.2500 kg/ha)
7.0: herbicidal effect rating, CYPIR ([2]; 0.2500 kg/ha) | herbicidal effect rating, ECHORC ([3]; 0.0625 kg/ha)

Cn1c(C(F)(F)F)cc(=O)n(-c2cc(N=C3SCC(=O)N3C3CC3)c(Cl)cc2F)c1=O [Compound 152, 3-{4-Chloro-5-[(3-cyclopropyl-4-oxo-2-thiazolidinylidene)amino]-2-fluorophenyl}-1-methyl-6-(trifluoromethyl)-2,4(1H,3H)-pyrimidinedione]
2.0: herbicidal rating GALAP ([5]; rate 0.0625 kg/ha) | Preemergence herbicidal rating ZEAMX ([6]; rate 0.2500 kg/ha) | Preemergence herbicidal rating CHEAL ([8]; rate 0.0313 kg/ha) | Preemergence herbicidal rating AMBEL ([9]; rate 0.1250 kg/ha)
7.0: Preemergence herbicidal rating IPOHE ([7]; rate 0.2500 kg/ha)
5.0: herbicidal rating ZEAMX ([11]; rate 0.0313 kg/ha)
4.0: Preemergence herbicidal rating IPOHE ([7]; rate 0.1250 kg/ha) | herbicidal rating ZEAMX ([11]; rate 0.0156 kg/ha)
6.5: herbicidal rating ZEAMX ([11]; rate 0.0625 kg/ha)
1.0: Preemergence herbicidal rating ORYSAT ([1]; rate 0.0625 kg/ha) | Preemergence herbicidal rating ORYSAT ([1]; rate 0.1250 kg/ha) | Preemergence herbicidal rating ORYSAT ([1]; rate 0.2500 kg/ha) | Preemergence herbicidal rating ZEAMX ([6]; rate 0.0625 kg/ha) | Preemergence herbicidal rating ZEAMX ([6]; rate 0.1250 kg/ha) | Preemergence herbicidal rating IPOHE ([7]; rate 0.0625 kg/ha) | Preemergence herbicidal rating TRZAWR ([12]; rate 0.0625 kg/ha) | Preemergence herbicidal rating TRZAWR ([12]; rate 0.1250 kg/ha) | Preemergence herbicidal rating TRZAWR ([12]; rate 0.2500 kg/ha)
3.0: herbicidal rating CASOB ([4]; rate 0.0625 kg/ha)
6.0: Preemergence herbicidal rating AMBEL ([9]; rate 0.2500 kg/ha)
9.0: Preemergence herbicidal rating CHEAL ([8]; rate 0.0625 kg/ha) | Preemergence herbicidal rating CHEAL ([8]; rate 0.1250 kg/ha) | Preemergence herbicidal rating CHEAL ([8]; rate 0.2500 kg/ha)
0.0: Preemergence herbicidal rating ORYSAT ([1]; rate 0.0313 kg/ha) | herbicidal effect rating, CYPIR ([2]; 0.0625 kg/ha) | herbicidal effect rating, CYPIR ([2]; 0.1250 kg/ha) | herbicidal effect rating, CYPIR ([2]; 0.2500 kg/ha) | herbicidal effect rating, ECHORC ([3]; 0.0625 kg/ha) | herbicidal effect rating, ECHORC ([3]; 0.1250 kg/ha) | herbicidal effect rating, ECHORC ([3]; 0.2500 kg/ha) | herbicidal rating CASOB ([4]; rate 0.0156 kg/ha) | herbicidal rating CASOB ([4]; rate 0.0313 kg/ha) | herbicidal rating GALAP ([5]; rate 0.0156 kg/ha) | herbicidal rating GALAP ([5]; rate 0.0313 kg/ha) | Preemergence herbicidal rating ZEAMX ([6]; rate 0.0313 kg/ha) | Preemergence herbicidal rating IPOHE ([7]; rate 0.0313 kg/ha) | Preemergence herbicidal rating AMBEL ([9]; rate 0.0313 kg/ha) | Preemergence herbicidal rating AMBEL ([9]; rate 0.0625 kg/ha) | herbicidal effect rating, CYPSE ([10]; 0.0625 kg/ha) | herbicidal effect rating, CYPSE ([10]; 0.1250 kg/ha) | herbicidal effect rating, CYPSE ([10]; 0.2500 kg/ha) | Preemergence herbicidal rating TRZAWR ([12]; rate 0.0313 kg/ha)
